Data on 33 molecules can be found in patent publication US20240317721A1, “PYRAZOLYL DERIVATIVES AS INHIBITORS OF THE KRAS MUTANT PROTEIN” (NOVARTIS AG, priority 2021, published 2024).

The structures appear in SMILES notation.

The IC50 is the concentration that gives 50% inhibition.

The assay deals with KRasG12C (M1-K169, biotinylated on the N-terminus) (Homo sapiens (Human), UniProt P01116, G12C). Kind of assay: Covalent competition assay: scintillation proximity assay (SPA) quantifying covalent modification of KRASG12C. Conditions: competition with radiolabeled covalent probe (Compound B/Compound A), 2 hours incubation, 10 nM KRasG12C. The class given is binding. The procedure, abridged:
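Test compounds compete with a radiolabeled covalent probe for modification of N-terminally biotinylated KRasG12C(M1-K169):GDP, final 10 nM protein, 25 nM radio-ligand, 475 nM unlabelled ligand, 2 h with agitation in 20 mM Tris-HCl pH 7.5, 150 mM NaCl, 0.1 mM MgCl2, 0.01% Tween-20.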
Consider `C=CC(=O)N1CC2(CC(n3nc(N4CCN(C[C@@H]5COCCO5)CC45CCC5)c(-c4c(Cl)c(C)cc5[nH]ncc45)c3C)C2)C1` (single isomer, unassigned) [Example 169b], for which the IC50 is 12 nM.

On to `C=CC(=O)N1CC2(CC(n3nc(N4CCN(CCOC)CC4(C)C)c(-c4c(Cl)c(C)cc5[nH]ncc45)c3C)C2)C1` (single isomer, unassigned) [Example 170a, 1-(6-(4-(5-chloro-6-methyl-1H-indazol-4-yl)-3-(4-(2-methoxyethyl)-2,2-dimethylpiperazin-1-yl)-5-methyl-1H-pyrazol-1-yl)-2-azaspiro[3.3]heptan-2-yl)prop-2-en-1-one], for which the IC50 was over 50000 nM.

On to `C=CC(=O)N1CC2(CC(n3nc(N4CCN(CCOC)CC4(C)C)c(-c4c(Cl)c(C)cc5[nH]ncc45)c3C)C2)C1` (single isomer, unassigned) [Example 170b, 1-(6-(4-(5-chloro-6-methyl-1H-indazol-4-yl)-3-(4-(2-methoxyethyl)-2,2-dimethylpiperazin-1-yl)-5-methyl-1H-pyrazol-1-yl)-2-azaspiro[3.3]heptan-2-yl)prop-2-en-1-one], for which the IC50 is 60 nM.

Turning to `C=CC(=O)N1CC2(CC(n3nc(N4CCN(C[C@@H]5COCCO5)CC45CCC5)c(-c4c(Cl)c(Cl)cc5[nH]ncc45)c3C)C2)C1` (single isomer, unassigned) [Example 171a], the IC50 is over 5000 nM.

With `C=CC(=O)N1CC2(CC(n3nc(N4CCN(C[C@@H]5COCCO5)CC45CCC5)c(-c4c(Cl)c(Cl)cc5[nH]ncc45)c3C)C2)C1` (single isomer, unassigned) [Example 171b], the half-inhibitory concentration (IC50) worked out at 8 nM.

Take `C=CC(=O)N1CC2(CC(n3nc(N4CCN(C[C@@H]5COCCO5)CC4(C)C)c(-c4c(Cl)c(Cl)cc5[nH]ncc45)c3C)C2)C1` (single isomer, unassigned) [Example 172a]: the IC50 worked out at 3900 nM.

For the molecule `C=CC(=O)N1CC2(CC(n3nc(N4CCN(C[C@@H]5COCCO5)CC4(C)C)c(-c4c(Cl)c(Cl)cc5[nH]ncc45)c3C)C2)C1` (single isomer, unassigned) [Example 172b], the half-maximal inhibitory concentration (IC50) came out at 15 nM.

On to `C=CC(=O)N1CC2(CC(n3nc(N4CCN(C[C@@H]5COCCO5)C[C@]4(C)CC)c(-c4c(Cl)c(C)cc5[nH]ncc45)c3C)C2)C1` (single isomer, unassigned) [Example 173a], for which the IC50 worked out at 2900 nM.

For the molecule `C=CC(=O)N1CC2(CC(n3nc(N4CCN(C[C@@H]5COCCO5)C[C@]4(C)CC)c(-c4c(Cl)c(C)cc5[nH]ncc45)c3C)C2)C1` (single isomer, unassigned) [Example 173b], the IC50 came to 5 nM.

With `C=C(F)C(=O)N1CC2(CC(n3nc(N4CCN(C[C@@H]5COCCO5)C[C@]4(C)CC)c(-c4c(Cl)c(C)cc5[nH]ncc45)c3C)C2)C1` (single isomer, unassigned) [Example 174a], the IC50 was over 5000 nM.

For `C=C(F)C(=O)N1CC2(CC(n3nc(N4CCN(C[C@@H]5COCCO5)C[C@]4(C)CC)c(-c4c(Cl)c(C)cc5[nH]ncc45)c3C)C2)C1` (single isomer, unassigned) [Example 174b], the IC50 came to 121 nM.

`CC[C@@]1(C)CN(C[C@@H]2COCCO2)CCN1c1nn(C2CC3(C2)CN(C(=O)/C=C/Cl)C3)c(C)c1-c1c(Cl)c(C)cc2[nH]ncc12` (single isomer, unassigned) [Example 175a]: the IC50 amounted to 939 nM.

Consider `CC[C@@]1(C)CN(C[C@@H]2COCCO2)CCN1c1nn(C2CC3(C2)CN(C(=O)/C=C/Cl)C3)c(C)c1-c1c(Cl)c(C)cc2[nH]ncc12` (single isomer, unassigned) [Example 175b], for which the IC50 is 9 nM.

Take `C=CC(=O)N1CC2(CC(n3nc(N4CCN(CCN5CCOCC5=O)C[C@]4(C)CC)c(-c4c(Cl)c(C)cc5[nH]ncc45)c3C)C2)C1` (single isomer, unassigned) [Example 177a]: the IC50 worked out at 8 nM.

As to `C=CC(=O)N1CC2(CC(n3nc(N4CCN(CCN5CCOCC5=O)C[C@]4(C)CC)c(-c4c(Cl)c(C)cc5[nH]ncc45)c3C)C2)C1` (single isomer, unassigned) [Example 177b], the IC50 was 1700 nM.

In the case of `C=CC(=O)N1CC2(CC(n3nc(N4CCN(CCOC)C[C@]4(C)C(F)F)c(-c4c(Cl)c(C)cc5[nH]ncc45)c3C)C2)C1` (single isomer, unassigned) [Example 178a], the IC50 stood at 3900 nM.

As for `C=CC(=O)N1CC2(CC(n3nc(N4CCN(CCOC)C[C@]4(C)C(F)F)c(-c4c(Cl)c(C)cc5[nH]ncc45)c3C)C2)C1` (single isomer, unassigned) [Example 178b], the IC50 is 48 nM.

Turning to `C=CC(=O)N1CC2(CC(n3nc(N4CCN(CCOC)C[C@@]4(C)C(F)F)c(-c4c(Cl)c(C)cc5[nH]ncc45)c3C)C2)C1` (single isomer, unassigned) [Example 179a], the IC50 is over 5000 nM.

`C=CC(=O)N1CC2(CC(n3nc(N4CCN(CCOC)C[C@@]4(C)C(F)F)c(-c4c(Cl)c(C)cc5[nH]ncc45)c3C)C2)C1` (single isomer, unassigned) [Example 179b]: the half-maximal inhibitory concentration (IC50) amounted to 38 nM.

Turning to `C=CC(=O)N1CC2(CC(n3nc(N4CCN(C(C)(C)C(=O)OC)CC45CCC5)c(-c4c(Cl)c(C)cc5[nH]ncc45)c3C)C2)C1` (single isomer, unassigned) [Example 180a, methyl 2-(5-(1-(2-acryloyl-2-azaspiro[3.3]heptan-6-yl)-4-(5-chloro-6-methyl-1H-indazol-4-yl)-5-methyl-1H-pyrazol-3-yl)-5,8-diazaspiro[3.5]nonan-8-yl)-2-methylpropanoate], the IC50 is over 5000 nM.

For the molecule `C=CC(=O)N1CC2(CC(n3nc(N4CCN(C(C)(C)C(=O)OC)CC45CCC5)c(-c4c(Cl)c(C)cc5[nH]ncc45)c3C)C2)C1` (single isomer, unassigned) [Example 180b, methyl 2-(5-(1-(2-acryloyl-2-azaspiro[3.3]heptan-6-yl)-4-(5-chloro-6-methyl-1H-indazol-4-yl)-5-methyl-1H-pyrazol-3-yl)-5,8-diazaspiro[3.5]nonan-8-yl)-2-methylpropanoate], the IC50 was determined as 17 nM.

Consider `C=CC(=O)N1CC2(CC(n3nc(N4CCN(C[C@@H]5COCCO5)C[C@]4(C)COC)c(-c4c(Cl)c(C)cc5[nH]ncc45)c3C)C2)C1` (single isomer, unassigned) [Example 181a], for which the IC50 was 929 nM.

For the molecule `C=CC(=O)N1CC2(CC(n3nc(N4CCN(C[C@@H]5COCCO5)C[C@]4(C)COC)c(-c4c(Cl)c(C)cc5[nH]ncc45)c3C)C2)C1` (single isomer, unassigned) [Example 181b], the IC50 was 8 nM.

On to `C=CC(=O)N1CC2(CC(n3nc(N4CCN(C[C@@H]5COCCO5)C[C@]4(C)COC)c(-c4c(Cl)c(Cl)cc5[nH]ncc45)c3C)C2)C1` (single isomer, unassigned) [Example 182a], for which the half-maximal inhibitory concentration (IC50) was 1400 nM.

As to `C=CC(=O)N1CC2(CC(n3nc(N4CCN(C[C@@H]5COCCO5)C[C@]4(C)COC)c(-c4c(Cl)c(Cl)cc5[nH]ncc45)c3C)C2)C1` (single isomer, unassigned) [Example 182b], the IC50 worked out at 8 nM.

Consider `C=CC(=O)N1CC2(CC(n3nc(N4CCN(CCOC(F)F)CC45CCC5)c(-c4c(Cl)c(C)cc5[nH]ncc45)c3C)C2)C1` (single isomer, unassigned) [Example 183a, 1-(6-(4-(5-chloro-6-methyl-1H-indazol-4-yl)-3-(8-(2-(difluoromethoxy)ethyl)-5,8-diazaspiro[3.5]nonan-5-yl)-5-methyl-1H-pyrazol-1-yl)-2-azaspiro[3.3]heptan-2-yl)prop-2-en-1-one], for which the IC50 is over 5000 nM.

Turning to `C=CC(=O)N1CC2(CC(n3nc(N4CCN(CCOC(F)F)CC45CCC5)c(-c4c(Cl)c(C)cc5[nH]ncc45)c3C)C2)C1` (single isomer, unassigned) [Example 183b, 1-(6-(4-(5-chloro-6-methyl-1H-indazol-4-yl)-3-(8-(2-(difluoromethoxy)ethyl)-5,8-diazaspiro[3.5]nonan-5-yl)-5-methyl-1H-pyrazol-1-yl)-2-azaspiro[3.3]heptan-2-yl)prop-2-en-1-one], the IC50 stood at 27 nM.

With `C=C(F)C(=O)N1CC2(CC(n3nc(N4CCN(C[C@@H]5COCCO5)C[C@]4(C)COC)c(-c4c(Cl)c(Cl)cc5[nH]ncc45)c3C)C2)C1` (single isomer, unassigned) [Example 184a], the IC50 was over 5000 nM.

In the case of `C=C(F)C(=O)N1CC2(CC(n3nc(N4CCN(C[C@@H]5COCCO5)C[C@]4(C)COC)c(-c4c(Cl)c(Cl)cc5[nH]ncc45)c3C)C2)C1` (single isomer, unassigned) [Example 184b], the IC50 was determined as 61 nM.

In the case of `C=CC(=O)N1CC2(CC(n3nc(N4CCN(CC5COCCOC5)CC45CCC5)c(-c4c(Cl)c(C)cc5[nH]ncc45)c3C)C2)C1` (single isomer, unassigned) [Example 185a, 1-(6-(3-(8-((1,4-dioxepan-6-yl)methyl)-5,8-diazaspiro[3.5]nonan-5-yl)-4-(5-chloro-6-methyl-1H-indazol-4-yl)-5-methyl-1H-pyrazol-1-yl)-2-azaspiro[3.3]heptan-2-yl)prop-2-en-1-one], the IC50 amounted to 4100 nM.

As to `C=CC(=O)N1CC2(CC(n3nc(N4CCN(CC5COCCOC5)CC45CCC5)c(-c4c(Cl)c(C)cc5[nH]ncc45)c3C)C2)C1` (single isomer, unassigned) [Example 185b, 1-(6-(3-(8-((1,4-dioxepan-6-yl)methyl)-5,8-diazaspiro[3.5]nonan-5-yl)-4-(5-chloro-6-methyl-1H-indazol-4-yl)-5-methyl-1H-pyrazol-1-yl)-2-azaspiro[3.3]heptan-2-yl)prop-2-en-1-one], the IC50 stood at 15 nM.

Take `C=CC(=O)N1CC2(CC(n3nc(N4CCN(CC5COCCOC5)C[C@]4(C)CC)c(-c4c(Cl)c(C)cc5[nH]ncc45)c3C)C2)C1` (single isomer, unassigned) [Example 186a]: the IC50 stood at 1500 nM.

For the molecule `C=CC(=O)N1CC2(CC(n3nc(N4CCN(CC5COCCOC5)C[C@]4(C)CC)c(-c4c(Cl)c(C)cc5[nH]ncc45)c3C)C2)C1` (single isomer, unassigned) [Example 186b], the IC50 turned out to be 7 nM.
